{"source": "ChEMBL document CHEMBL2163196", "about": "“Discovery of small molecules that inhibit melanogenesis via regulation of tyrosinase expression” (Bioorg Med Chem Lett, 2012)", "key": {"B16-F10 [1]": {"system": "B16-F10", "test": "Inhibition of alpha-MSH-induced melanogenesis in mouse B16F10 cells at 10 uM after 3 days by spectrophotometric analysis relative to control", "type": "functional", "details": "B16-F10, 72 h"}, "[2]": {"test": "Inhibition of tyrosinase"}, "B16-F10 [3]": {"system": "B16-F10", "test": "Inhibition of alpha-MSH-induced melanogenesis in mouse B16F10 cells at 1 uM after 3 days by spectrophotometric analysis relative to control", "type": "functional", "details": "B16-F10, 72 h"}, "B16-F10 [4]": {"system": "B16-F10", "test": "Inhibition of alpha-MSH-induced melanogenesis in mouse B16F10 cells after 3 days by spectrophotometric analysis", "type": "functional, cell-based", "details": "for IC50: B16-F10, 72 h"}, "B16-F10 [5]": {"system": "B16-F10", "test": "Cytotoxicity against mouse alpha-MSH-induced B16F10 cells at 0.31 to 20 uM after 3 days by trypan blue staining", "type": "cell-based", "details": "b16-f10, 72 h"}, "B16-F10 [6]": {"system": "B16-F10", "test": "Ratio of kojic acid IC50 to compound IC50 for melanogenesis in mouse B16F10 cells", "type": "functional"}, "B16-F10 [7]": {"system": "B16-F10", "test": "Downregulation of tyrosinase in mouse B16F10 cells assessed as tyrosinase protein expression level at 5 uM after 48 hrs by Western blot analysis relative to actin (reference value: 1.1)", "type": "functional"}, "B16-F10 [8]": {"system": "B16-F10", "test": "Downregulation of tyrosinase in mouse B16F10 cells assessed as tyrosinase protein expression level at 5 uM after 24 hrs by Western blot analysis relative to actin (reference value: 1.6)", "type": "functional"}}, "note": "Activity calls are given as the source filed them. No cut-off for these calls is given here.", "data": [{"smiles": "COc1ccc(CN2CCN(C(=O)c3noc4c3CCCCC4)CC2)cc1", "values": [{"measurement": "inhibition at 10 µM", "setting": "B16-F10 [1]", "result": "< 5", "unit": "%"}, {"measurement": "inhibition", "setting": "[2]", "result": "inactive"}, {"measurement": "inhibition at 1 µM", "setting": "B16-F10 [3]", "result": "< 5", "unit": "%"}]}, {"smiles": "COc1ccc(N2CCN(C(=O)c3noc4c3CCCCC4)CC2)cc1", "values": [{"measurement": "inhibition", "setting": "B16-F10 [4]", "result": "Dose-dependent effect"}, {"measurement": "IC50", "setting": "B16-F10 [4]", "result": 670, "unit": "nM"}, {"measurement": "Activity", "setting": "B16-F10 [5]", "result": "Non-toxic"}, {"measurement": "inhibition at 10 µM", "setting": "B16-F10 [1]", "result": 92, "unit": "%"}, {"measurement": "inhibition", "setting": "[2]", "result": "inactive"}, {"measurement": "Ratio IC50", "setting": "B16-F10 [6]", "result": 126}, {"measurement": "inhibition at 1 µM", "setting": "B16-F10 [3]", "result": 42, "unit": "%"}]}, {"smiles": "O=C(c1noc2c1CCCCC2)N1CCN(c2ccc(F)cc2)CC1", "values": [{"measurement": "inhibition at 10 µM", "setting": "B16-F10 [1]", "result": "< 5", "unit": "%"}, {"measurement": "inhibition", "setting": "[2]", "result": "inactive"}]}, {"smiles": "COc1ccc(N2CCCN(C(=O)c3noc4c3CCCCC4)CC2)cc1", "values": [{"measurement": "inhibition at 10 µM", "setting": "B16-F10 [1]", "result": 30, "unit": "%"}, {"measurement": "inhibition", "setting": "[2]", "result": "inactive"}]}, {"smiles": "O=C(c1noc2c1CCCCC2)N1CCN(c2ccc3c(c2)OCCO3)CC1", "values": [{"measurement": "inhibition at 10 µM", "setting": "B16-F10 [1]", "result": "< 5", "unit": "%"}, {"measurement": "inhibition", "setting": "[2]", "result": "inactive"}]}, {"smiles": "COc1cccc(N2CCN(C(=O)c3noc4c3CCCCC4)CC2)c1", "values": [{"measurement": "inhibition at 10 µM", "setting": "B16-F10 [1]", "result": "< 5", "unit": "%"}, {"measurement": "inhibition", "setting": "[2]", "result": "inactive"}]}, {"smiles": "O=c1cc(CO)occ1O", "note": "[KOJIC ACID]", "values": [{"measurement": "IC50", "setting": "B16-F10 [4]", "result": 84500, "unit": "nM"}]}, {"smiles": "CCCOc1ccc(N2CCN(C(=O)c3noc4c3CCCCC4)CC2)cc1", "values": [{"measurement": "inhibition at 10 µM", "setting": "B16-F10 [1]", "result": 38, "unit": "%"}, {"measurement": "inhibition", "setting": "[2]", "result": "inactive"}, {"measurement": "inhibition at 1 µM", "setting": "B16-F10 [3]", "result": 34, "unit": "%"}]}, {"smiles": "CCCc1ccc(N2CCN(C(=O)c3noc4c3CCCCC4)CC2)cc1", "values": [{"measurement": "inhibition at 10 µM", "setting": "B16-F10 [1]", "result": 56, "unit": "%"}, {"measurement": "inhibition", "setting": "[2]", "result": "inactive"}, {"measurement": "inhibition at 1 µM", "setting": "B16-F10 [3]", "result": 21, "unit": "%"}]}, {"smiles": "O=C(c1noc2c1CCCCC2)N1CCN(c2ccc(Cl)cc2)CC1", "values": [{"measurement": "inhibition at 10 µM", "setting": "B16-F10 [1]", "result": 7, "unit": "%"}, {"measurement": "inhibition", "setting": "[2]", "result": "inactive"}]}, {"smiles": "O=C(c1noc2c1CCCCC2)N1CCN(c2ccc(O)cc2)CC1", "values": [{"measurement": "inhibition", "setting": "B16-F10 [4]", "result": "Dose-dependent effect"}, {"measurement": "IC50", "setting": "B16-F10 [4]", "result": 1010, "unit": "nM"}, {"measurement": "Activity", "setting": "B16-F10 [5]", "result": "Non-toxic"}, {"measurement": "inhibition at 10 µM", "setting": "B16-F10 [1]", "result": 89, "unit": "%"}, {"measurement": "inhibition", "setting": "[2]", "result": "inactive"}, {"measurement": "Ratio IC50", "setting": "B16-F10 [6]", "result": 85}, {"measurement": "inhibition at 1 µM", "setting": "B16-F10 [3]", "result": 47, "unit": "%"}]}, {"smiles": "CCCc1ccc(N2CCCN(C(=O)c3noc4c3CCCCC4)CC2)cc1", "values": [{"measurement": "inhibition at 10 µM", "setting": "B16-F10 [1]", "result": 95, "unit": "%"}, {"measurement": "inhibition", "setting": "[2]", "result": "inactive"}, {"measurement": "inhibition at 1 µM", "setting": "B16-F10 [3]", "result": 15, "unit": "%"}]}, {"smiles": "Cc1ccc(N2CCN(C(=O)c3noc4c3CCCCC4)CC2)cc1", "values": [{"measurement": "inhibition at 10 µM", "setting": "B16-F10 [1]", "result": "< 5", "unit": "%"}, {"measurement": "inhibition", "setting": "[2]", "result": "inactive"}]}, {"smiles": "CCOc1ccc(N2CCN(C(=O)c3noc4c3CCCCC4)CC2)cc1", "values": [{"measurement": "inhibition", "setting": "B16-F10 [4]", "result": "Dose-dependent effect"}, {"measurement": "IC50", "setting": "B16-F10 [4]", "result": 990, "unit": "nM"}, {"measurement": "Activity", "setting": "B16-F10 [5]", "result": "Non-toxic"}, {"measurement": "inhibition at 10 µM", "setting": "B16-F10 [1]", "result": 90, "unit": "%"}, {"measurement": "inhibition", "setting": "[2]", "result": "inactive"}, {"measurement": "Ratio IC50", "setting": "B16-F10 [6]", "result": 85}, {"measurement": "inhibition at 1 µM", "setting": "B16-F10 [3]", "result": 47, "unit": "%"}, {"measurement": "fold change (FC)", "setting": "B16-F10 [7]", "result": 0.7}, {"measurement": "fold change (FC)", "setting": "B16-F10 [8]", "result": 0.9}]}, {"smiles": "O=C(c1noc2c1CCCCC2)N1CCN(c2ncccn2)CC1", "values": [{"measurement": "inhibition at 10 µM", "setting": "B16-F10 [1]", "result": 8, "unit": "%"}, {"measurement": "inhibition", "setting": "[2]", "result": "inactive"}, {"measurement": "inhibition at 1 µM", "setting": "B16-F10 [3]", "result": 11, "unit": "%"}]}]}
